Experimental data reported in patent publication US20250197372A1 (priority 2020, published 2025).

Assays:
[1] = biological target: T1, recombinant alpha-glucosidase I (human full-length glucosidase I, Glu 1) (Homo sapiens, UniProt Q13724); experiment: Alpha-glucosidase I assay (Amplex Red glucose detection, synthetic trisaccharide substrate); format: biochemical; settings: Glucosidase 1; read-out: Glu 1 IC50
T1 construct: 6-His (C); made in house; host or cells: HEK-293T cells transduced with BacMam virus (virus raised in Sf9)
T1 sequence (Q13724 1-837): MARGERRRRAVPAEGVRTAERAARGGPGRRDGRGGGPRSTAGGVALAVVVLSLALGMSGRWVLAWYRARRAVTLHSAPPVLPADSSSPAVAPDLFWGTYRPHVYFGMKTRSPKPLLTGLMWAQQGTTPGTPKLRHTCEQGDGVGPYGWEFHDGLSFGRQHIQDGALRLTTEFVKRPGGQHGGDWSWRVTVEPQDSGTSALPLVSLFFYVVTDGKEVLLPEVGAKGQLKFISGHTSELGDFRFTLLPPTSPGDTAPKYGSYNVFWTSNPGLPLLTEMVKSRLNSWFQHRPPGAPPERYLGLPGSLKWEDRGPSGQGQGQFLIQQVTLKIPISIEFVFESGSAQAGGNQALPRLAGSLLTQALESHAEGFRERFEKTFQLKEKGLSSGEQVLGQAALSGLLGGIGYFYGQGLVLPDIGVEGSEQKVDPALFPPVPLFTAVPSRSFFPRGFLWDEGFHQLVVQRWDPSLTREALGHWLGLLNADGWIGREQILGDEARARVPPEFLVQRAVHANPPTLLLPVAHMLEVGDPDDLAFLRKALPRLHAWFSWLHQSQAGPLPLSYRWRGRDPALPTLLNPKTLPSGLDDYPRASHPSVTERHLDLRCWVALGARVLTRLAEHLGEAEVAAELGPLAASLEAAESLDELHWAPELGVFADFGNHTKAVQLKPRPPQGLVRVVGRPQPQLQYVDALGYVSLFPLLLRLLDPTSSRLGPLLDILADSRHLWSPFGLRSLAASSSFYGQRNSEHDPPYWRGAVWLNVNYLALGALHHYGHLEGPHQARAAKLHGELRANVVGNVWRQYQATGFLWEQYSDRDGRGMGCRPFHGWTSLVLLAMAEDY
In short: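 Human full-length glucosidase I, His-tagged, […] and Ni-purified. Enzyme preincubated with compound dilutions 60 min at 37° C, then synthetic trisaccharide substrate 90 min at 37° C; stopped with 1.5M Tris pH 8.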

[2] = biological target: rat maltase (partially purified alpha-glucosidase from intestinal rat powder); experiment: Intestinal alpha-glucosidase assay, maltose substrate (Glucose GO Kit); format: biochemical
In short: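 First step: 60 min, 37 °C, compound with partially purified rat intestinal alpha-glucosidase. Next, maltose or sucrose for 30 min at 37 °C, ended at 90 °C for 5 min. Glucose quantified enzymatically; concentration–inhibition data fitted 4-PL for IC50.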

| SMILES | IC50 [1] [nM] | IC50 [2] [nM] |
| --- | --- | --- |
| O=[N+]([O-])c1cc(-c2ccc[nH]2)ccc1NCc1cccc(CN2C[C@H](O)[C@@H](O)[C@H](O)[C@H]2CO)c1 [Compound 1088, (2R,3R,4R,5S)-2-(hydroxymethyl)-1-{[3-({[2-nitro-4-(1H-pyrrol-2-yl)phenyl]amino}methyl)phenyl]methyl}piperidine-3,4,5-triol] | < 1 | < 1 |
| [N-]=[N+]=Nc1ccc(NCCc2cc(CCN3C[C@H](O)[C@@H](O)[C@H](O)[C@H]3CO)cc(C3CCCCC3)c2)c([N+](=O)[O-])c1 [Compound 1115, (2R,3R,4R,5S)-1-[2-(3-{2-[(4-azido-2-nitrophenyl)amino]ethyl}-5-cyclohexylphenyl)ethyl]-2-(hydroxymethyl)piperidine-3,4,5-triol] | 100 | 6740 |
| O=C(O)c1cc(Cl)cc(NCCc2ccc(CCN3C[C@H](O)[C@@H](O)[C@H](O)[C@H]3CO)cc2)c1 [Compound 1117, 3-chloro-5-{[2-(4-{2-[(2R,3R,4R,5S)-3,4,5-trihydroxy-2-(hydroxymethyl)piperidin-1-yl]ethyl}phenyl)ethyl]amino}benzoic acid] | 877 | 218 |
